System: MDA-MB-231 complex spheroids, growth inhibition
Experiment: Anticancer human tumor MDA-MB-231 cell line growth inhibition [Asc];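 note: spheroids exposed to compounds for 7 days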
Details: for IC50: curve of first compound; for viability, T/C: stronger effect = lower value
How it was run: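 Complex spheroids combining tumor cells with HUVEC endothelial cells and human MSCs, at 37 degrees C, 5% CO2; agents tested alone or combined, half-log dilutions from at or near clinical Cmax, or 10 microM if Cmax unknown.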

## NC(=O)C(=Cn1cnc(-c2cc(C(F)(F)F)cc(C(F)(F)F)c2)n1)c1cncnc1 + CNC(C)C(=O)NC1CN(S(=O)(=O)c2cccc(S(=O)(=O)N3CCC4CCC(C(=O)NC(c5ccccc5)c5ccccc5)N4C(=O)C(NC(=O)C(C)NC)C3)c2)CCC2CCC(C(=O)NC(c3ccccc3)c3ccccc3)N2C1=O
Second compound 0.01 µM
  IC50: < 949 pM
Second compound 0.0316 µM
  IC50: < 949 pM
Second compound 0.1 µM
  IC50: < 949 pM
Second compound 0.316 µM
  IC50: < 949 pM
Second compound 1 µM
  IC50: < 949 pM
Second compound 0.01 µM, first compound 0.000949 µM
  viability, T/C: 3.47%
Second compound 0.01 µM, first compound 0.003 µM
  viability, T/C: 3.32%
Second compound 0.01 µM, first compound 0.00949 µM
  viability, T/C: 2.92%
Second compound 0.01 µM, first compound 0.03 µM
  viability, T/C: 3.34%
Second compound 0.01 µM, first compound 0.0949 µM
  viability, T/C: 3.01%
Second compound 0.01 µM, first compound 0.3 µM
  viability, T/C: 1.3%
Second compound 0.0316 µM, first compound 0.000949 µM
  viability, T/C: 1.67%
Second compound 0.0316 µM, first compound 0.003 µM
  viability, T/C: 1.38%
Second compound 0.0316 µM, first compound 0.00949 µM
  viability, T/C: 1.57%
Second compound 0.0316 µM, first compound 0.03 µM
  viability, T/C: 1.39%
Second compound 0.0316 µM, first compound 0.0949 µM
  viability, T/C: 1.1%
Second compound 0.0316 µM, first compound 0.3 µM
  viability, T/C: 0.42%
Second compound 0.1 µM, first compound 0.000949 µM
  viability, T/C: 1.05%
Second compound 0.1 µM, first compound 0.003 µM
  viability, T/C: 1.72%
Second compound 0.1 µM, first compound 0.00949 µM
  viability, T/C: 1.5%
Second compound 0.1 µM, first compound 0.03 µM
  viability, T/C: 1.76%
Second compound 0.1 µM, first compound 0.0949 µM
  viability, T/C: 0.66%
Second compound 0.1 µM, first compound 0.3 µM
  viability, T/C: 0.29%
Second compound 0.316 µM, first compound 0.000949 µM
  viability, T/C: 1.29%
Second compound 0.316 µM, first compound 0.003 µM
  viability, T/C: 1.22%
Second compound 0.316 µM, first compound 0.00949 µM
  viability, T/C: 1.39%
Second compound 0.316 µM, first compound 0.03 µM
  viability, T/C: 1.21%
Second compound 0.316 µM, first compound 0.0949 µM
  viability, T/C: 0.77%
Second compound 0.316 µM, first compound 0.3 µM
  viability, T/C: 0.57%
Second compound 1 µM, first compound 0.000949 µM
  viability, T/C: 0.82%
Second compound 1 µM, first compound 0.003 µM
  viability, T/C: 1.08%
Second compound 1 µM, first compound 0.00949 µM
  viability, T/C: 1.07%
Second compound 1 µM, first compound 0.03 µM
  viability, T/C: 0.91%
Second compound 1 µM, first compound 0.0949 µM
  viability, T/C: 0.91%
Second compound 1 µM, first compound 0.3 µM
  viability, T/C: 0.37%
